Usually IC50 stands for the concentration that gives 50% inhibition. By inhibition is commonly meant the percentage by which the read-out fell short of the control.

Data set [1] has as its system HCT-116. In words: Cytotoxicity against human HCT-116 cells assessed as survival rate at 10 uM measured after 72 hrs by MTT assay relative to control. Format: functional. The settings on record: read-out: Survival.
For data set [2], the system named is MCF7. In words: Cytotoxicity against human MCF7 cells assessed as survival rate at 10 uM measured after 72 hrs by MTT assay relative to control. Format: functional. Conditions: read-out: Survival.
Data set [3] has as its system U-87 MG. The data set can be described thus: Cytotoxicity against human U-87 MG cells assessed as survival rate at 10 uM measured after 72 hrs by MTT assay relative to control. It counts as functional, U-87MG ATCC. Conditions: read-out: Survival. (Tetrazolium dyes change colour on reduction, which living cells bring about.)
Data set [4] relates to U-87 MG. The data set can be described thus: Cytotoxicity against human U-87 MG cells assessed as inhibition of cell growth incubated for 72 hrs by MTT assay. Format: functional, cell-based, U-87MG ATCC.
Data set [5] has as its system MGC-803. In words: Cytotoxicity against human MGC-803 cells assessed as inhibition of cell growth at 10 uM measured after 72 hrs by MTT assay relative to control. Format: functional.
Data set [6] deals with HCT-116. The data set can be described thus: Cytotoxicity against human HCT-116 cells assessed as inhibition of cell growth incubated for 72 hrs by MTT assay. Format: functional, cell-based. The settings on record: HCT-116, 72 h.
The test system of data set [7] is HCT-116. The data set can be described thus: Cytotoxicity against human HCT-116 cells assessed as inhibition of cell growth at 10 uM measured after 72 hrs by MTT assay relative to control. It counts as functional.
Data set [8] has as its system MCF7. The data set can be described thus: Cytotoxicity against human MCF7 cells assessed as inhibition of cell growth incubated for 72 hrs by MTT assay. The settings on record: MCF7, 72 h. It counts as functional, cell-based.
Data set [9] relates to HeLa. In words: Cytotoxicity against human HeLa cells assessed as inhibition of cell growth incubated for 72 hrs by MTT assay. It counts as functional, cell-based.
Data set [10] relates to MCF7. In words: Cytotoxicity against human MCF7 cells assessed as inhibition of cell growth at 10 uM measured after 72 hrs by MTT assay relative to control. Format: functional.
Data set [11] deals with MKN-45. In words: Cytotoxicity against human MKN-45 cells assessed as inhibition of cell growth incubated for 72 hrs by MTT assay. It counts as functional, cell-based. Conditions: MKN-45, 72 h.
For data set [12], the system named is U-87 MG. In words: Cytotoxicity against human U-87 MG cells assessed as inhibition of cell growth at 10 uM measured after 72 hrs by MTT assay relative to control. It counts as functional, U-87MG ATCC.
Data set [13] relates to MKN-45. In words: Cytotoxicity against human MKN-45 cells assessed as inhibition of cell growth at 10 uM measured after 72 hrs by MTT assay relative to control. Format: functional.
The subject of data set [14] is HeLa. In words: Cytotoxicity against human HeLa cells assessed as inhibition of cell growth at 10 uM measured after 72 hrs by MTT assay relative to control. Format: functional.
The nature of data set [15]: Cytotoxicity against HHL-5 cells assessed as inhibition of cell growth incubated for 72 hrs by MTT assay. It counts as toxicity, cell-based. Conditions: human.
In data set [16] the test system is MGC-803. The data set can be described thus: Cytotoxicity against human MGC-803 cells assessed as inhibition of cell growth incubated for 72 hrs by MTT assay. Format: functional, cell-based. Conditions: MGC-803, 72 h.
Data set [17] concerns K562. In words: Antitumor activity against human K562 cells. It counts as functional, cell-based.
Data set [18] concerns P388. In words: Antitumor activity against mouse P388 cells. Format: functional, cell-based.
Data set [19] relates to HT-29. The data set can be described thus: Antitumor activity against human HT-29 cells. Format: functional, cell-based.
The test system of data set [20] is A549. The data set can be described thus: Antitumor activity against human A549 cells. Format: functional, cell-based.

For `CC(=O)Nc1ccc(/C=C2\OC(=O)C=C2c2ccccc2)cc1`, the viability at 10 µM in data set [1] amounted to 87.2%; in data set [2] it was 92.2%; in [3], 90.3%.
The matching figures for `COc1ccc(C2=CC(=O)O/C2=C\c2ccc3ccccc3c2)cc1`: 98.3%, 83.8% and 106%.
As for `Cc1ccc(/C=C2\OC(=O)C=C2c2ccccc2)cc1`, the viability at 10 µM in [1] is 104%; in data set [2] it was 87.4%; in data set [3], 101%.
In the case of `COc1ccc(C2=CC(=O)O/C2=C\c2ccc(C(=O)O)c(O)c2)cc1`, the values for the viability at 10 µM in data set [1], in data set [2] and in data set [3] were 62.8%, 40.7% and 106%, respectively.
In the case of `COc1ccc(C2=CC(=O)O/C2=C\c2ccc(O)c(O)c2)cc1`, the half-inhibitory concentration (IC50) in [4] came out at 23800 nM; in data set [6], 3400 nM; in data set [8] it was 2500 nM; in data set [9], 1300 nM; in [11], 2800 nM; in [16] it was 8800 nM. Also, the inhibition at 10 µM in data set [5], in data set [7], in [10], in data set [12], in [13] and in [14] was greater than 50% each time. Further, the viability at 10 µM came to 31.7% in [1], 26.1% in data set [2] and 51.9% in data set [3]. In addition, the half-inhibitory concentration (IC50) at 72 h in data set [15] stood at 11300 nM.
With `COc1ccc(C2=CC(=O)O/C2=C\c2ccc(C)cc2)cc1`, the figures for the viability at 10 µM in [1], in data set [2] and in [3] were 87.3%, 101% and 94.1%, respectively.
Take `COc1ccc(/C=C2\OC(=O)C=C2c2ccc(OC)cc2)cc1`: the half-maximal inhibitory concentration (IC50) was 11900 nM in [4]; 3700 nM in data set [6]; 4300 nM in [8]; 2200 nM in [9]; 5200 nM in data set [11]; 6200 nM in [16]. Further, the inhibition at 10 µM in [5], in data set [7], in [10], in [12], in [13] and in [14] was greater than 50% each time. Also, the viability at 10 µM was 26.5% in [1], 25.9% in [2] and 39.1% in data set [3]. Further, the half-maximal inhibitory concentration (IC50) at 72 h in data set [15] was 3900 nM.
Regarding `COc1ccc(C2=CC(=O)O/C2=C\c2ccc(C(C)(C)C)cc2)cc1`, the viability at 10 µM was 98.9% in data set [1], 60.2% in data set [2] and 109% in [3].
The molecule `CC1(C)CCc2cc(/C=C3\OC(=O)C=C3c3ccc(O)cc3)ccc2O1` returned a half-inhibitory concentration (IC50) in data set [17] of 10100 nM.
On to `COc1ccc(C2=CC(=O)O/C2=C\c2ccccc2)cc1`, for which the half-inhibitory concentration (IC50) in [4] was determined as 13700 nM; in data set [6] it was 1900 nM; in data set [8] it was 1200 nM; in [9], 1800 nM; in [11], 1000 nM; in data set [16], 5000 nM. Also, the inhibition at 10 µM in [5], in data set [7], in [10], in data set [12], in data set [13] and in data set [14] was greater than 50% in each case. Moreover, the viability at 10 µM in [1] was found to be 32.5%; in data set [2] it was 29.7%; in data set [3], 52%. Also, the IC50 at 72 h in [15] amounted to 1600 nM.
Consider `O=C1O/C(=C\c2cc(Br)c(O)c(Br)c2)C(c2cc(Br)c(O)c(Br)c2)=C1Cl`, for which the half-inhibitory concentration (IC50) in data set [18], in data set [19] and in data set [20] was 8000 nM in each case.
As for `COc1ccc(C2=CC(=O)O/C2=C\c2ccc(NC(C)=O)cc2)cc1`, the IC50 in [4] came out at 2500 nM; in data set [6], 2200 nM; in data set [8], 6100 nM; in data set [9] it was 700 nM; in data set [11], 1000 nM; in data set [16], 3000 nM. Besides, the inhibition at 10 µM in data set [5], in [7], in [10], in data set [12], in [13] and in data set [14] was greater than 50% in each case. Further, the viability at 10 µM in data set [1] came to 32.5%; in data set [2], 30.4%; in [3], 39.2%. Moreover, the half-inhibitory concentration (IC50) at 72 h in data set [15] amounted to 5500 nM.
Consider `O=C1C=C(c2ccccc2)/C(=C/c2ccc(O)cc2)O1`, for which the viability at 10 µM is 87.7% in data set [1], 87.1% in data set [2] and 92.4% in data set [3].
Turning to `O=C1C=C(c2ccccc2)/C(=C/c2ccc(C(=O)O)cc2)O1`, the viability at 10 µM in data set [1] amounted to 105%; in data set [2] it was 87.3%; in data set [3] it was 96.5%.
Take `O=C1C=C(c2ccccc2)/C(=C/c2ccc3[nH]ccc3c2)O1`: the figures for the viability at 10 µM in data set [1], in data set [2] and in data set [3] were 98.9%, 60.2% and 103%, respectively.
`COc1cccc2c1C(=O)c1c(O)c3c(c(O)c1C2=O)C[C@@](O)(C(=O)CO)C[C@@H]3O[C@H]1C[C@H](N)[C@H](O)[C@H](C)O1` [DOXORUBICIN]: the IC50 in data set [4] came to 300 nM; in data set [6], 200 nM; in data set [9] it was 200 nM; in data set [11], 200 nM; in [16], 300 nM. The viability at 10 µM in data set [1] is 12.2%; in data set [2] it was 5.8%; in [3] it was 20.3%. The IC50 at 72 h in data set [15] worked out at 7200 nM.
On to `O=C1O/C(=C\c2ccc(O)c(Br)c2)C(c2ccc(O)c(Br)c2)=C1Cl`, for which, in [19], the half-maximal inhibitory concentration (IC50) amounted to 2600 nM.
`CC(C)=CCc1cc(/C=C2\OC(=O)C=C2c2ccc(O)cc2)ccc1O` returned an IC50 in [17] of 12800 nM.
Take `COc1ccc(C2=CC(=O)O/C2=C\c2ccc(C(C)C)cc2)cc1`: the viability at 10 µM in data set [1] was found to be 85.9%; in [2], 102%; in data set [3], 97.4%.
Take `COc1cc(/C=C2\OC(=O)C=C2c2ccccc2)ccc1O`: the values for the viability at 10 µM in data set [1], in data set [2] and in data set [3] were 137%, 102% and 99.8%, respectively.
As to `COc1ccc(C2=CC(=O)O/C2=C\c2ccc(Br)cc2)cc1`, the viability at 10 µM came to 107% in [1], 107% in [2] and 103% in data set [3].
For the molecule `O=C1O/C(=C\c2ccc(O)c(Br)c2)C(c2ccc(O)cc2)=C1Cl`, the half-inhibitory concentration (IC50) in [18], in data set [19] and in [20] was 3100 nM throughout.
For the molecule `COc1ccc(C2=CC(=O)O/C2=C\c2ccc3[nH]ccc3c2)cc1`, the concentration for half-maximal inhibition (IC50) in data set [4] turned out to be 7800 nM; in [6], 300 nM; in data set [8] it was 1300 nM; in data set [9], 200 nM; in data set [11] it was 200 nM; in data set [16], 900 nM. Also, the inhibition at 10 µM in [5], in [7], in data set [10], in [12], in data set [13] and in data set [14] was greater than 50% each time. Moreover, the viability at 10 µM in data set [1] was 23.9%; in data set [2] it was 25.8%; in data set [3] it was 39.5%. Also, the 50% inhibitory concentration (IC50) at 72 h in data set [15] came to 1300 nM.
As for `COc1ccc(C2=CC(=O)O/C2=C\c2ccc(O)c(OC)c2)cc1`, the IC50 in data set [4] turned out to be 4500 nM; in data set [6] it was 400 nM; in data set [8] it was 100 nM; in data set [9], 600 nM; in data set [11] it was 300 nM; in data set [16], 5400 nM. Further, the inhibition at 10 µM in data set [5], in [7], in [10], in [12], in data set [13] and in data set [14] was greater than 50% each time. Besides, the viability at 10 µM in [1] amounted to 24.1%; in data set [2], 25.2%; in data set [3] it was 37.8%. For the same molecule, the IC50 at 72 h in data set [15] was 1900 nM.
For `COc1ccc(/C=C2\OC(=O)C=C2c2ccccc2)cc1`, the results for the viability at 10 µM in data set [1], in [2] and in data set [3] were 113%, 82.9% and 91.2%, respectively.
As for `COc1ccc(C2=CC(=O)O/C2=C\c2ccc(N(C)C)cc2)cc1`, the viability at 10 µM in data set [1] came to 87.2%; in data set [2] it was 92.2%; in data set [3] it was 101%.

Values taken from ChEMBL document CHEMBL6078667, “Synthesis, Biological Evaluation, and Mechanistic Insights of Rubrolide Analogues as Antitumor Agents” (J Nat Prod, 2024).
